Assays:
[1] = pKa determination from emission intensity versus pH; type: physicochemical; conditions: H2O:DMSO (99:1), 10^–5 M, 25 °C
Source text: Ir-H and Ru-H are susceptible to deprotonation in aqueous media due to the presence of the acidic −COOH group. In fact, the actual protonation state of these complexes at the different physiological pH values defines their global charge and correspondingly influences their solubility, their photophysical properties, and their cellular uptake.[45]−[47] Thus, the pKa values of Ir-H and Ru-H in their excited states were experimentally determined by monitoring the variations of their emission intensity at specific wavelengths versus different pH values and fitting the data (Iem,λ/pH) to a sigmoidal equation. In good agreement with similar complexes reported in the literature,[45],[46] there was a gradual decrease in the emission intensity of Ir-H and Ru-H with decreasing pH (Figures 4 and S50). […] These values can be considered as an acceptable approximation to the values of the respective ground states. Therefore, we concluded that Ir-H and Ru-H adopt their deprotonated zwitterionic forms in the whole range of physiological pHs. This means that Ir-H assumes a zwitterionic neutral form, while Ru-H adopts a zwitterionic monocationic structure. In both cases, there is charge separation, and as a result, we predict that the cellular uptake ability of these complexes could be reduced, in comparison to that of their relatives Ir-Me and Ru-Me.
Figure 4 pKa determination. […]

PC-3 cells = test: Cellular internalization by ICP-MS; type: cell-based, human; conditions: 5 μM, 4 h
Protocol: Figure 10 Cellular internalization. PC-3 cells were incubated for 4 h with the indicated compounds at 5 μM, and the Ir (A) or Ru (B) content per 1 × 10^6 cells was quantified by ICP-MS. Bars represent the mean value of three replicates ± SD. * p < 0.05; *** p < 0.001 versus Ir-H or Ru-H.
The intracellular accumulation of the PSs is a crucial requirement to achieve a photocytotoxic effect. This is because the ROS generated by the PSs have a very limited radius of action and only operate in the cellular compartment or organelle in which they are generated.[57] […] This further emphasizes the importance of cellular uptake for their cytotoxic activity. Additionally, when using tumor-targeting ligands, such as BN3, the intracellular uptake of the metallopeptides depends on the level of expression of the target receptor on the cell surface and the internalization mechanism, which may differ from that of the free complex. Therefore, the internalization of complexes Ir-H, Ir-Me, Ru-H, and Ru-Me and of metallopeptides Ir-BN and Ru-BN in PC-3 cells was determined by quantifying the intracellular metal content by inductively coupled plasma mass spectrometry (ICP-MS) (Figure 10). After 4 h treatment with the compounds at 5 μM, the amount of Ir in cells exposed to Ir-H was 3.1 ± 0.7 ng per million cells, whereas in the case of its conjugated form Ir-BN, it increased 5.7-fold to 17.9 ± 5.6 ng per million cells. […]
PC-3 cells were seeded in 6-well plates at a density of 2 million cells/well. […] The number of cells in each sample was determined using a Novocyte flow cytometer (Agilent Technologies). The samples were centrifuged to obtain the cell pellet, and the complex content was subsequently assessed using inductively coupled plasma mass spectrometry (ICP-MS). […] The Ir or Ru content was analyzed in Agilent 7500c ICP-MS located at the Technical Research Services of the University of Girona. […] The isotopes detected were ^193Ir, ^101Ru, and ^103Rh, respectively. […] Three independent samples were analyzed for each complex.

[2] = Self-aggregation study (Lambert-Beer law, UV-vis); type: physicochemical; conditions: H2O:DMSO (99:1), 1 to 40 μM, absorbance at 417 nm
Protocol: The possible aggregation properties (self-assembly behavior) were investigated for the lipophilic derivative Ir-Me through the respective analysis of the Lambert–Beer law using UV–vis spectroscopy in H2O:DMSO (99:1). More specifically, the absorbance of Ir-Me at λ = 417 nm was plotted versus concentration in the range between 1 and 40 μM. An excellent linear fitting was obtained confirming that there is no significant deviation from the Lambert–Beer law (Figures S57 and S58).

pKa (excited state) [1]	amount of Ir in cells (PC-3 cells)	self-aggregation [2]	intracellular Ru content (PC-3 cells)	Compound
3.81	3.1 ± 0.7 ng per million cells			Cn1c2ccccc2c2ccnc(-c3ccc(/C=C/C(=O)O)cn3)c21.[Cl-].[Ir+3].[c-]1ccccc1-c1ccccn1.[c-]1ccccc1-c1ccccn1 [Ir-H]
	266.4 ± 13.9 ng per million cells	does not form aggregates		COC(=O)/C=C/c1ccc(-c2nccc3c4ccccc4n(C)c23)nc1.[Cl-].[Ir+3].[c-]1ccccc1-c1ccccn1.[c-]1ccccc1-c1ccccn1 [Ir-Me]
4.51			0.329 ng per million cells	Cn1c2ccccc2c2ccnc(-c3ccc(/C=C/C(=O)O)cn3)c21.[Cl-].[Cl-].[Ru+2].c1ccc(-c2ccccn2)nc1.c1ccc(-c2ccccn2)nc1 [Ru-H]

Reference: publication PMC11483813, “Bombesin-Targeted Delivery of β-Carboline-Based Ir(III) and Ru(II) Photosensitizers for a Selective Photodynamic Therapy of Prostate Cancer” (Inorganic Chemistry, 2024)
